We go through two molecules from ChEMBL document CHEMBL1143129.

By pKi is commonly meant the Ki on a negative log10 scale, so that one unit is a factor of ten.

pKi: −log10 of the molar value.

The target in experiment [1] is Carbonic anhydrase 3 (Homo sapiens) (UniProt P07451).
Description: Inhibition of human recombinant full length carbonic hydrase 3 by stopped-flow CO2 hydration assay
The target of experiment [2] is Carbonic anhydrase 13 (Mus musculus) (UniProt Q9D6N1). Briefly: Inhibition of mouse recombinant full length carbonic hydrase 13 by stopped-flow CO2 hydration assay.
Chain of Carbonic anhydrase 13 (Mus musculus) (Q9D6N1 whole entry, looked up): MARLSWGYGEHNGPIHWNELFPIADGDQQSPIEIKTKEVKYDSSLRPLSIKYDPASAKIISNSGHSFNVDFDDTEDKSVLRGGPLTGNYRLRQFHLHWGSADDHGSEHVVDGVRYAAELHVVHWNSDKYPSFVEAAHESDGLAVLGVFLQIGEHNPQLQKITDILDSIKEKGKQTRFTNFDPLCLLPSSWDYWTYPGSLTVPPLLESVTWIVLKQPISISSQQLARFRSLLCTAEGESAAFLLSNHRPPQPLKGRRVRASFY

Chain of Carbonic anhydrase 3 (Homo sapiens) (P07451 whole entry): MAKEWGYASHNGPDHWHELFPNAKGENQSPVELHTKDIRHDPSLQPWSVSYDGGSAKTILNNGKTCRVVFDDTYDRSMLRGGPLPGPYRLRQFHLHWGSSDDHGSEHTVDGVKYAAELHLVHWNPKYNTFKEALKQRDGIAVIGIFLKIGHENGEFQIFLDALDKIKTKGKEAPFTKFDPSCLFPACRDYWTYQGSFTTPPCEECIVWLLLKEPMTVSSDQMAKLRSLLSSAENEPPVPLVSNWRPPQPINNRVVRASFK

As to `CC(=O)/N=c1/sc(S(N)(=O)=O)nn1C`, the Kinact in experiment [1] was 7 10^5nM. For `CN(C)c1nnc(CS(N)(=O)=O)s1`, the pKi in experiment [2] is 7.70. The Kinact in experiment [1] was 3.6 10^5nM.
